# Test results reported in ChEMBL document CHEMBL1275492, “In vitro activity of ceftobiprole against pathogens from two phase 3 clinical trials of complicated skin and skin structure infections” (2008).
# How the values were obtained:
# Assay type in all cases: functional
# Bacteroides fragilis = assay: Antibacterial activity against Bacteroides fragilis obtained from complicated skin and skin structure infections by agar dilution method
# Prevotella = assay: Antibacterial activity against Prevotella spp. obtained from complicated skin and skin structure infections by agar dilution method
# Veillonella = assay: Antibacterial activity against Veillonella spp. obtained from complicated skin and skin structure infections by agar dilution method
# Pseudomonas aeruginosa = assay: Antibacterial activity against Pseudomonas aeruginosa obtained from complicated skin and skin structure infections by agar dilution method
# Acinetobacter baumannii = assay: Antibacterial activity against Acinetobacter baumannii obtained from complicated skin and skin structure infections by agar dilution method
# Pseudomonas fluorescens = assay: Antibacterial activity against Pseudomonas fluorescens obtained from complicated skin and skin structure infections by agar dilution method
# [1] = test system: Stenotrophomonas maltophilia; assay: Antibacterial activity against Stenotrophomonas maltophilia obtained from complicated skin and skin structure infections by agar dilution method
# Klebsiella aerogenes = assay: Antibacterial activity against Enterobacter aerogenes obtained from complicated skin and skin structure infections by agar dilution method
# Klebsiella oxytoca = assay: Antibacterial activity against Klebsiella oxytoca obtained from complicated skin and skin structure infections by agar dilution method
# Staphylococcus aureus [2] = assay: Antibacterial activity against Staphylococcus aureus obtained from complicated skin and skin structure infections by agar dilution method
# Staphylococcus aureus [3] = assay: Antibacterial activity against methicillin resistant Staphylococcus aureus obtained from complicated skin and skin structure infections by agar dilution method
# Staphylococcus aureus [4] = assay: Antibacterial activity against methicillin susceptible Staphylococcus aureus obtained from complicated skin and skin structure infections by agar dilution method
# [5] = test system: Staphylococcus epidermidis; assay: Antibacterial activity against coagulase-negative Staphylococcus epidermidis obtained from complicated skin and skin structure infections by agar dilution method
# [6] = test system: Staphylococcus haemolyticus; assay: Antibacterial activity against coagulase-negative Staphylococcus haemolyticus obtained from complicated skin and skin structure infections by agar dilution method
# [7] = test system: Staphylococcus lugdunensis; assay: Antibacterial activity against coagulase-negative Staphylococcus lugdunensis obtained from complicated skin and skin structure infections by agar dilution method
# Staphylococcus hominis = assay: Antibacterial activity against coagulase-negative Staphylococcus hominis obtained from complicated skin and skin structure infections by agar dilution method
# Staphylococcus capitis = assay: Antibacterial activity against coagulase-negative Staphylococcus capitis obtained from complicated skin and skin structure infections by agar dilution method
# [8] = test system: Staphylococcus saprophyticus; assay: Antibacterial activity against coagulase-negative Staphylococcus saprophyticus obtained from complicated skin and skin structure infections by agar dilution method
# Staphylococcus cohnii = assay: Antibacterial activity against coagulase-negative Staphylococcus cohnii obtained from complicated skin and skin structure infections by agar dilution method
# Mammaliicoccus sciuri = assay: Antibacterial activity against coagulase-negative Staphylococcus sciuri obtained from complicated skin and skin structure infections by agar dilution method
# Staphylococcus warneri = assay: Antibacterial activity against coagulase-negative Staphylococcus warneri obtained from complicated skin and skin structure infections by agar dilution method
# [9] = test system: Staphylococcus lugdunensis; assay: Antibacterial activity against methicillin-resistant, oxacillin-susceptible, coagulase-negative, mecA-positive Staphylococcus lugdunensis obtained from complicated skin and skin structure infections by agar dilution method
# Staphylococcus = assay: Antibacterial activity against methicillin-susceptible, coagulase-negative Staphylococcus obtained from complicated skin and skin structure infections by agar dilution method
# Enterococcus faecalis = assay: Antibacterial activity against Enterococcus faecalis obtained from complicated skin and skin structure infections by agar dilution method
# Enterococcus faecium = assay: Antibacterial activity against Enterococcus faecium obtained from complicated skin and skin structure infections by agar dilution method
# Streptococcus agalactiae = assay: Antibacterial activity against Streptococcus agalactiae obtained from complicated skin and skin structure infections by agar dilution method
# Streptococcus pyogenes = assay: Antibacterial activity against Streptococcus pyogenes obtained from complicated skin and skin structure infections by agar dilution method
# [10] = Antibacterial activity against Streptococcus sp. 'group C' obtained from complicated skin and skin structure infections by agar dilution method
# [11] = Antibacterial activity against Streptococcus sp. 'group G' obtained from complicated skin and skin structure infections by agar dilution method
# [12] = test system: Streptococcus constellatus; assay: Antibacterial activity against Streptococcus constellatus obtained from complicated skin and skin structure infections by agar dilution method
# Streptococcus mitis = assay: Antibacterial activity against Streptococcus mitis obtained from complicated skin and skin structure infections by agar dilution method
# [13] = test system: Staphylococcus intermedius; assay: Antibacterial activity against Staphylococcus intermedius obtained from complicated skin and skin structure infections by agar dilution method
# Aerococcus viridans = assay: Antibacterial activity against Aerococcus viridans obtained from complicated skin and skin structure infections by agar dilution method
# Bacillus = assay: Antibacterial activity against Bacillus spp. obtained from complicated skin and skin structure infections by agar dilution method
# Gemella morbillorum = assay: Antibacterial activity against Gemella morbillorum obtained from complicated skin and skin structure infections […]
# Gemella = assay: Antibacterial activity against Gemella spp. obtained from complicated skin and skin structure infections by agar dilution method
# Lactococcus lactis = assay: Antibacterial activity against Lactococcus lactis obtained from complicated skin and skin structure infections by agar dilution method
# Micrococcus = assay: Antibacterial activity against Micrococcus spp. obtained from complicated skin and skin structure infections by agar dilution method
# Citrobacter braakii = assay: Antibacterial activity against Citrobacter braakii obtained from complicated skin and skin structure infections by agar dilution method
# Citrobacter freundii = assay: Antibacterial activity against Citrobacter freundii obtained from complicated skin and skin structure infections by agar dilution method
# Enterobacter amnigenus = assay: Antibacterial activity against Enterobacter amnigenus obtained from complicated skin and skin structure infections by agar dilution method; conditions: Lelliottia amnigena
# Enterobacter cloacae = assay: Antibacterial activity against Enterobacter cloacae obtained from complicated skin and skin structure infections by agar dilution method
# Escherichia coli = assay: Antibacterial activity against Escherichia coli obtained from complicated skin and skin structure infections by agar dilution method
# Klebsiella pneumoniae = assay: Antibacterial activity against Klebsiella pneumoniae obtained from complicated skin and skin structure infections by agar dilution method
# Morganella morganii = assay: Antibacterial activity against Morganella morganii obtained from complicated skin and skin structure infections by agar dilution method
# Proteus mirabilis = assay: Antibacterial activity against Proteus mirabilis obtained from complicated skin and skin structure infections by agar dilution method
# Proteus penneri = assay: Antibacterial activity against Proteus penneri obtained from complicated skin and skin structure infections by agar dilution method
# Proteus vulgaris = assay: Antibacterial activity against Proteus vulgaris obtained from complicated skin and skin structure infections by agar dilution method
# Providencia stuartii = assay: Antibacterial activity against Providencia stuartii obtained from complicated skin and skin structure infections by agar dilution method
# Salmonella = assay: Antibacterial activity against Salmonella spp. obtained from complicated skin and skin structure infections by agar dilution method
# Serratia marcescens = assay: Antibacterial activity against Serratia marcescens obtained from complicated skin and skin structure infections by agar dilution method
structure (smiles),measurement,setting,value
Cc1ncc([N+](=O)[O-])n1CCO [METRONIDAZOLE],MIC,Bacteroides fragilis,0.5 µg/mL
same,MIC,Prevotella,0.5 µg/mL
same,MIC,Veillonella,0.5 µg/mL
Nc1nc(/C(=N/O)C(=O)N[C@@H]2C(=O)N3C(C(=O)O)=C(/C=C4\CCN([C@@H]5CCNC5)C4=O)CS[C@H]23)ns1 [CEFTOBIPROLE],MIC50,Pseudomonas aeruginosa,4 µg/mL
same,MIC90,Pseudomonas aeruginosa,> 64 µg/mL
same,MIC50,Acinetobacter baumannii,> 64 µg/mL
same,MIC90,Acinetobacter baumannii,> 64 µg/mL
same,MIC50,Pseudomonas fluorescens,> 64 µg/mL
same,MIC90,Pseudomonas fluorescens,> 64 µg/mL
same,MIC50,[1],> 64 µg/mL
same,MIC90,[1],> 64 µg/mL
same,MIC,Bacteroides fragilis,≤ 0.03 µg/mL
same,MIC,Prevotella,≤ 0.03 µg/mL
same,MIC,Veillonella,≤ 0.03 µg/mL
same,MIC50,Klebsiella aerogenes,0.06 µg/mL
same,MIC90,Klebsiella aerogenes,32 µg/mL
same,MIC50,Klebsiella oxytoca,0.06 µg/mL
same,MIC90,Klebsiella oxytoca,32 µg/mL
same,MIC50,Staphylococcus aureus [2],0.5 µg/mL
same,MIC90,Staphylococcus aureus [2],1 µg/mL
same,MIC50,Staphylococcus aureus [3],0.5 µg/mL
same,MIC90,Staphylococcus aureus [3],2 µg/mL
same,MIC50,Staphylococcus aureus [4],0.25 µg/mL
same,MIC90,Staphylococcus aureus [4],0.5 µg/mL
same,MIC50,[5],0.5 µg/mL
same,MIC90,[5],1 µg/mL
same,MIC50,[6],0.5 µg/mL
same,MIC90,[6],1 µg/mL
same,MIC50,[7],0.5 µg/mL
same,MIC90,[7],1 µg/mL
same,MIC50,Staphylococcus hominis,0.5 µg/mL
same,MIC90,Staphylococcus hominis,1 µg/mL
same,MIC50,Staphylococcus capitis,0.5 µg/mL
same,MIC90,Staphylococcus capitis,1 µg/mL
same,MIC50,[8],0.5 µg/mL
same,MIC90,[8],1 µg/mL
same,MIC50,Staphylococcus cohnii,0.5 µg/mL
same,MIC90,Staphylococcus cohnii,1 µg/mL
same,MIC50,Mammaliicoccus sciuri,0.5 µg/mL
same,MIC90,Mammaliicoccus sciuri,1 µg/mL
same,MIC50,Staphylococcus warneri,0.5 µg/mL
same,MIC90,Staphylococcus warneri,1 µg/mL
same,MIC50,[9],0.5 µg/mL
same,MIC90,[9],2 µg/mL
same,MIC50,Staphylococcus,0.25 µg/mL
same,MIC90,Staphylococcus,0.5 µg/mL
same,MIC50,Enterococcus faecalis,0.5 µg/mL
same,MIC90,Enterococcus faecalis,0.5 µg/mL
same,MIC50,Enterococcus faecium,> 64 µg/mL
same,MIC50,Streptococcus agalactiae,0.06 µg/mL
same,MIC90,Streptococcus agalactiae,0.12 µg/mL
same,MIC,Streptococcus pyogenes,0.008 µg/mL
same,MIC50,Streptococcus pyogenes,0.008 µg/mL
same,MIC90,Streptococcus pyogenes,0.015 µg/mL
same,MIC50,[10],0.06 µg/mL
same,MIC90,[10],0.12 µg/mL
same,MIC50,[11],0.008 µg/mL
same,MIC90,[11],0.06 µg/mL
same,MIC50,[12],0.06 µg/mL
same,MIC90,[12],0.12 µg/mL
same,MIC50,Streptococcus mitis,0.06 µg/mL
same,MIC90,Streptococcus mitis,0.12 µg/mL
same,MIC50,[13],0.06 µg/mL
same,MIC90,[13],0.12 µg/mL
same,MIC50,Aerococcus viridans,0.12 µg/mL
same,MIC90,Aerococcus viridans,0.25 µg/mL
same,MIC50,Bacillus,0.12 µg/mL
same,MIC90,Bacillus,0.25 µg/mL
same,MIC50,Gemella morbillorum,0.12 µg/mL
same,MIC90,Gemella morbillorum,0.25 µg/mL
same,MIC50,Gemella,0.12 µg/mL
same,MIC90,Gemella,0.25 µg/mL
same,MIC50,Lactococcus lactis,0.12 µg/mL
same,MIC90,Lactococcus lactis,0.25 µg/mL
same,MIC50,Micrococcus,0.12 µg/mL
same,MIC90,Micrococcus,0.25 µg/mL
same,MIC50,Citrobacter braakii,0.06 µg/mL
same,MIC90,Citrobacter braakii,32 µg/mL
same,MIC50,Citrobacter freundii,0.06 µg/mL
same,MIC90,Citrobacter freundii,32 µg/mL
same,MIC50,Enterobacter amnigenus,0.06 µg/mL
same,MIC90,Enterobacter amnigenus,32 µg/mL
same,MIC50,Enterobacter cloacae,0.06 µg/mL
same,MIC90,Enterobacter cloacae,> 64 µg/mL
same,MIC50,Escherichia coli,0.06 µg/mL
same,MIC90,Escherichia coli,0.12 µg/mL
same,MIC50,Klebsiella pneumoniae,0.06 µg/mL
same,MIC90,Klebsiella pneumoniae,32 µg/mL
same,MIC50,Morganella morganii,0.12 µg/mL
same,MIC90,Morganella morganii,64 µg/mL
same,MIC50,Proteus mirabilis,0.03 µg/mL
same,MIC90,Proteus mirabilis,0.12 µg/mL
same,MIC50,Proteus penneri,0.06 µg/mL
same,MIC90,Proteus penneri,32 µg/mL
same,MIC50,Proteus vulgaris,0.06 µg/mL
same,MIC90,Proteus vulgaris,32 µg/mL
same,MIC50,Providencia stuartii,0.06 µg/mL
same,MIC90,Providencia stuartii,32 µg/mL
same,MIC50,Salmonella,0.06 µg/mL
same,MIC90,Salmonella,32 µg/mL
same,MIC50,Serratia marcescens,0.06 µg/mL
same,MIC90,Serratia marcescens,32 µg/mL
